Consider two compounds from patent US20020065315A1, “Ion channel modulating agents” (priority 1999, published 2002).

One series concerns T cells. The experiment in a line: Inhibition of T cell proliferation (antigen PPD induced, [3H]thymidine incorporation). The series is classed as cell-based. The note with it: PPD (10 μg/ml), 144 hours culture, mean of triplicate cultures. Here is the method:
The chemical compounds used according to the invention prevent immunological proliferation by selective inhibition of the Ca^2+-activated K-channels in T- and B-lymphocytes. This effect may be verified using various proliferation assays. In this experiment the proliferative assay described by Ødum et al [Ødum N, Kanner S B, Ledbetter J A, & Svejgaard A; J. Immunol. 1993 150 (12) 5289-5298] was used.
Assays were performed in culture medium (RPMI 1640; available from Gibco, Grand Island, N.Y.) supplemented with 10% pooled human serum, 2 mM L-glutamine, 100 μg/ml penicillin, and 100 μg/ml streptomycin (available from Novo Nordisk, Copenhagen, Denmark) in 96-well round bottom tissue culture plates (available from Nunc, Roskilde, Denmark) with a final volume of 200 μl.
T cells were pre-incubated for three hours with the test compounds before addition of antigen (PPD, purified protein derivative, 10 μg/ml). T cells were cultured at 5×10^4 cells/well for 144 hours. Twelve hours before harvest, [^3H]thymidine ([…]) was added. The cells were harvested onto glass fibre filters, and the [^3H]thymidine incorporation was measured in a scintillation counter. The results were expressed as mean counts per minute (cpm) from triplicate cultures.

In turn, `Cc1ccc(C)n1-c1c(-c2ccccc2)cc(Cl)cc1-c1ccccc1` displayed a melting point of 178 to 180 °C.
Turning to `CC(C)c1cccc(C(C)C)c1-c1cccnc1` [Compound 1B, 3-(2,6-diisopropylphenyl)-pyridine], the “T Cell Proliferation” value in the series on T cells (test compound 2.5 μM) came out at 19.5 cpm × 10^−3; in the series on T cells (test compound 10 μM), 19 cpm × 10^−3; with T cells (test compound 25 μM), 14 cpm × 10^−3.
